Results: ChEMBL document CHEMBL5725498, “ROR modulators and their uses” (2017)

Experiments:
[1] = TH17 Cytokine Inhibition ELISA: Human CD4+ T cells were differentiated to TH17 cells as described in the presence or absence of various concentrations of compounds in a final concentration of 0.1% DMSO in TexMACS medium. Supernatants were collected and stored at −20° C. until they were to be assayed for IL-17A, IL-17F, IL-17AF, IL-21 and/or IL-22 levels as determined by Ready-Set-Go ELISA kits (eBioscience) as per manufacturer's instructions. Endpoint absorbance was read at 450 nm and 570 nm according to manufacturer's instructions (eBioscience) using a microplate reader (Perkin Elmer). The percentage of cytokine inhibition was calculated with reference to DMSO treated cells and the IC50s were determined by GraphPad Prism software and presented in the table below.
[2] = target: T1, Nuclear receptor ROR-gamma (Homo sapiens, UniProt P51449); assay: RORgamma LBD Binding Assay: Compound binding to the human RORγ LBD was assessed using the Human RORγ Assay System (INDIGO Biosciences Inc.) as per manufacturer's instructions. Binding to the RORγ LBD was assessed using gradient concentrations of the indicated compounds in a final concentration of 0.5% DMSO, where IC50s were generated using Graphpad Prism.
T1 sequence (P51449 whole entry): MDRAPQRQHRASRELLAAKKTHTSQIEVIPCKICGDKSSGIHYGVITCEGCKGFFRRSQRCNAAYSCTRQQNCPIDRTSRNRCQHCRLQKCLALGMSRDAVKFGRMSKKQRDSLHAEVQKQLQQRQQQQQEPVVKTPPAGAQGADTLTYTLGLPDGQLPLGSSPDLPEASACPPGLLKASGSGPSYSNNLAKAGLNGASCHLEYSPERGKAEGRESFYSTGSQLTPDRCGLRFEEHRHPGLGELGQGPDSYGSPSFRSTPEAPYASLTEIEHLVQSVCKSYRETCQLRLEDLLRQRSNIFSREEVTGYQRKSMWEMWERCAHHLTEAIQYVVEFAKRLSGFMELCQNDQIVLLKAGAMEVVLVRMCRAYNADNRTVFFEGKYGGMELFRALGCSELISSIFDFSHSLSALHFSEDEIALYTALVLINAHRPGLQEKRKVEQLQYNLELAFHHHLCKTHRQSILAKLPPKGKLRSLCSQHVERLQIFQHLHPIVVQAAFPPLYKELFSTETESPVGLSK

Row | IC50 [1] | Compound | IC50 [2]
1 | < 10 µM | OC(c1ccc(CBr)cc1)(C(F)(F)F)C(F)(F)F | –
2 | < 10 µM | CN(C)C(=O)c1ccc2c(ccc(=O)n2Cc2ccc(C(O)(C(F)(F)F)C(F)(F)F)cc2)c1 | –

Row | Compound | IC50 [1] | IC50 [2]
3 | CN(C)C(=O)c1ccc2c(c1)CCC(=O)N2Cc1ccc(C(O)(C(F)(F)F)C(F)(F)F)cc1 | > 10 µM | < 10 µM
